The target in assay [1] is Sodium-dependent dopamine transporter (Rattus norvegicus, UniProt P23977). Nature of the assay: biochemical. It is filed as tissue-based, Sprague-Dawley, Brain.
The target in assay [2] is Sodium-dependent serotonin transporter (Rattus norvegicus, UniProt P31652). On the set-up: species or system Sprague-Dawley.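 Further: radioligand competition using [3H]citalopram bound to serotonin transporter in Sprague-Dawley rat brain tissue, 1 h incubation, bound radioactivity quantified by liquid scintillation counting.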
Description: Displacement of [3H]citalopram from serotonin transporter in Sprague-Dawley rat brain after 1 hr by liquid scintillation counting
Assay [3] has as its target Transporter (Rattus norvegicus, UniProt Q63380). Nature of the assay: biochemical. The format is tissue-based, Sprague-Dawley, Frontal cortex.
Description: Displacement of [3H]nisoxetine from norepinephrine transporter in Sprague-Dawley rat frontal cortex after 1 hr by liquid scintillation counting

Broadly, the Ki is the equilibrium dissociation constant of an inhibitor or competing ligand from its target.

Counter-ions that a name gives are not always drawn.

Transporter, sequence (Q63380 whole entry): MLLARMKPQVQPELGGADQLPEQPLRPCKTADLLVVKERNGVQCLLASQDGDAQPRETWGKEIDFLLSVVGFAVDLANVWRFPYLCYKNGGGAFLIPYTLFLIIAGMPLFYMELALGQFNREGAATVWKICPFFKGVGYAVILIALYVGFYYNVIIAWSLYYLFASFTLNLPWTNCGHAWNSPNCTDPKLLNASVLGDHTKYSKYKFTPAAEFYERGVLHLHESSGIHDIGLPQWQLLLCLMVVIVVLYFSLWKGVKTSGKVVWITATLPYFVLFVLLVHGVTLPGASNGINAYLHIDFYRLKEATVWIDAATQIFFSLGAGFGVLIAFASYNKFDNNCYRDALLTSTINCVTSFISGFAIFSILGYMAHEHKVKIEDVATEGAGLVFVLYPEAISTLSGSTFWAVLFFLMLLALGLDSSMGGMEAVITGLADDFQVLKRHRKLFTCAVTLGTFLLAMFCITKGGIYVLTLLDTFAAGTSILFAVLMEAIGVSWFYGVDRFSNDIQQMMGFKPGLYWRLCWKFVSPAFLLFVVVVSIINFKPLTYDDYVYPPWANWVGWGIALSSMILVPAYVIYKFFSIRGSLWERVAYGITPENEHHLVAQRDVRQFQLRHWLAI
Sodium-dependent dopamine transporter, sequence (P23977 whole entry): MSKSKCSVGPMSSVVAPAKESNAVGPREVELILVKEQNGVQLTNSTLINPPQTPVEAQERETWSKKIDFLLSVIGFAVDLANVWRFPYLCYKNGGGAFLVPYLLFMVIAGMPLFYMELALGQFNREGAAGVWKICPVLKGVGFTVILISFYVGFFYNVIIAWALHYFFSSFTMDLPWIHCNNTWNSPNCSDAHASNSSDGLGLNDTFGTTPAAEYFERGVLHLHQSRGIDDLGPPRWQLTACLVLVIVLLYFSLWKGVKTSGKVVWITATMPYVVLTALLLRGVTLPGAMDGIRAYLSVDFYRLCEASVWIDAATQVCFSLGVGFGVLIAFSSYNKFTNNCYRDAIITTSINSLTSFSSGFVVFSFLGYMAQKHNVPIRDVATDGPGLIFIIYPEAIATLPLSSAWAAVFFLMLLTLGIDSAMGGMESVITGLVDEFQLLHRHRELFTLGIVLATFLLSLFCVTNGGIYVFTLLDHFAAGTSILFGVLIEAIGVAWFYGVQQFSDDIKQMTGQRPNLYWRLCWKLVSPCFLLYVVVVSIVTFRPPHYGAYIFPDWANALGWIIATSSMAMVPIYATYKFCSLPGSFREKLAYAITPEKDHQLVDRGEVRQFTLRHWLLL
Sodium-dependent serotonin transporter, sequence (P31652 whole entry): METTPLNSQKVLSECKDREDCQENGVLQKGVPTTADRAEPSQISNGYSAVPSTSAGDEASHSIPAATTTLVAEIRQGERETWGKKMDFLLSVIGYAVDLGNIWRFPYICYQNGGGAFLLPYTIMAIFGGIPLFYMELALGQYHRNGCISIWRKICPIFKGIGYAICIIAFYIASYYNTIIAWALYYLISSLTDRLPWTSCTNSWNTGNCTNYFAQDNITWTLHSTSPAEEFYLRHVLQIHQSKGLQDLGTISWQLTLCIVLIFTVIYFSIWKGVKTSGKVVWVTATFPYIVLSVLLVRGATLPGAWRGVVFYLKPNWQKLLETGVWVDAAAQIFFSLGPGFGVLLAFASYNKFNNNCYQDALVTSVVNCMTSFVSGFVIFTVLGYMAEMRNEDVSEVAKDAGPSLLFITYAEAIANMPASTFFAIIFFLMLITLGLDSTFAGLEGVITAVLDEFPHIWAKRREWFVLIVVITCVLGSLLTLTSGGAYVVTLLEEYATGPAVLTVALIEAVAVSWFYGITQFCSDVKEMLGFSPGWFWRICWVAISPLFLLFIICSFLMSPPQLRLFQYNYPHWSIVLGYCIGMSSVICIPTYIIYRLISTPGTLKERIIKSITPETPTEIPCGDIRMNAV

For `CCOC(=O)C1(c2ccc(I)cc2)CCNCC1`, the Ki in assay [1] is 3500 nM; in assay [2] it was 2.5 nM.

With `CN1CCC(C(=O)OCc2ccccc2)(c2ccc(Cl)c(Cl)c2)CC1`, the Ki in assay [1] came out at 2970 nM; in assay [3], 901 nM; in assay [2], 3.9 nM.

Regarding `COc1ccc(COC(=O)C2(c3ccc(Cl)c(Cl)c3)CCN(C)CC2)cc1`, the Ki in assay [1] turned out to be 2790 nM; in assay [3], 300 nM; in assay [2], 1.7 nM.

Turning to `CN1CCC(C(=O)OCc2ccc([N+](=O)[O-])cc2)(c2ccc(Cl)c(Cl)c2)CC1`, the Ki in assay [1] turned out to be 1530 nM; in assay [3], 333 nM; in assay [2] it was 1 nM.

In the case of `CN1CCC(C(=O)OCc2ccc(Cl)c(Cl)c2)(c2ccc(Cl)c(Cl)c2)CC1`, the results for the Ki in assay [1] and in assay [2] were 5230 nM and 4.3 nM, respectively.

With `CN1CCC(C(=O)OCc2ccc(Br)cc2)(c2ccc(Cl)c(Cl)c2)CC1`, the inhibition constant (Ki) in assay [1] came to 2560 nM; in assay [3] it was 580 nM; in assay [2], 7 nM.

As for `CN1CCC(C(=O)OCc2ccc(I)cc2)(c2ccc(Cl)c(Cl)c2)CC1`, the Ki in assay [1] worked out at 3470 nM; in assay [2] it was 13.2 nM.

On to `CN1CCC(C(=O)OCc2ccc(-c3ccccc3)cc2)(c2ccc(Cl)c(Cl)c2)CC1`, for which the inhibition constant Ki in assay [1] stood at 5630 nM; in assay [2], 10.9 nM.

In the case of `CN1CCC(C(=O)OCc2ccccc2)(c2ccc(-c3ccccc3)cc2)CC1`, the Ki in assay [1] is 2310 nM; in assay [2] it was 49.5 nM.

With `O=C(OCc1ccccc1)C1(c2ccc(Cl)c(Cl)c2)CCNCC1`, the inhibition constant (Ki) in assay [1] is 919 nM; in assay [2], 9.2 nM.

On to `COc1ccc(COC(=O)C2(c3ccc(Cl)c(Cl)c3)CCNCC2)cc1`, for which the values for the Ki in assay [1], in assay [3] and in assay [2] were 1260 nM, 3130 nM and 10.2 nM, respectively.

Regarding `O=C(OCc1ccc([N+](=O)[O-])cc1)C1(c2ccc(Cl)c(Cl)c2)CCNCC1`, the Ki in assay [1] was found to be 1300 nM; in assay [3], 1440 nM; in assay [2] it was 6.4 nM.

`O=C(OCc1ccc(Cl)c(Cl)c1)C1(c2ccc(Cl)c(Cl)c2)CCNCC1`: the Ki in assay [1] was 2890 nM; in assay [3] it was 11900 nM; in assay [2] it was 30.2 nM.

As to `O=C(OCc1ccc(C(F)(F)F)cc1)C1(c2ccc(Cl)c(Cl)c2)CCNCC1`, the results for the inhibition constant Ki in assay [1], in assay [3] and in assay [2] were 2240 nM, 7900 nM and 46.7 nM, respectively.

Turning to `O=C(OCc1ccccc1)C1(c2ccc(-c3ccccc3)cc2)CCNCC1`, the Ki in assay [1] came to 1110 nM; in assay [2], 2 nM.

As to `COc1ccc(COC(=O)C2(c3ccc(I)cc3)CCNCC2)cc1`, the figures for the Ki in assay [1], in assay [3] and in assay [2] were 2920 nM, 2730 nM and 0.6 nM, respectively.

For the compound `O=C(OCc1ccc([N+](=O)[O-])cc1)C1(c2ccc(I)cc2)CCNCC1`, the Ki in assay [1] is 1780 nM; in assay [3], 2070 nM; in assay [2] it was 5.9 nM.

For `O=C(OCc1ccc(Cl)c(Cl)c1)C1(c2ccc(I)cc2)CCNCC1`, the values for the Ki in assay [1], in assay [3] and in assay [2] were 4340 nM, 6060 nM and 5.9 nM, respectively.

As to `COc1ccc(COC(=O)C2(c3ccc4ccccc4c3)CCNCC2)cc1`, the figures for the Ki in assay [1], in assay [3] and in assay [2] were 889 nM, 2350 nM and 2.9 nM, respectively.

`O=C(OCc1ccc([N+](=O)[O-])cc1)C1(c2ccc3ccccc3c2)CCNCC1`: the Ki in assay [1] came out at 732 nM; in assay [3] it was 937 nM; in assay [2], 2 nM.

`O=C(OCc1ccc(Cl)c(Cl)c1)C1(c2ccc3ccccc3c2)CCNCC1`: the Ki in assay [1] came to 3210 nM; in assay [3], 16600 nM; in assay [2] it was 26.5 nM.

On to `CN1CCC(C(=O)OCc2ccc3ccccc3c2)(c2ccc(Cl)c(Cl)c2)CC1`, for which the Ki in assay [1] was 4910 nM; in assay [3] it was 2550 nM; in assay [2], 9.9 nM.

`CCOC(=O)C1(c2ccc(Cl)c(Cl)c2)CCNCC1`: the Ki is 321 nM in assay [1] and 21.6 nM in assay [2].

`CCOC(=O)C1(c2ccc(-c3ccccc3)cc2)CCNCC1`: the Ki in assay [1] is 3210 nM; in assay [2] it was 3.3 nM.

Regarding `CCOC(=O)C1(c2ccc3ccccc3c2)CCNCC1`, the inhibitory constant (Ki) in assay [1] stood at 710 nM; in assay [2], 14.1 nM.

`CCOC(=O)C1(c2ccc(I)cc2)CCN(C)CC1` gave a Ki in assay [3] of 519000 nM.

In assay [3], `CCOC(=O)C1(c2ccc3ccccc3c2)CCN(C)CC1` returned a Ki of 71000 nM.

For `Fc1ccc([C@@H]2CCNC[C@H]2COc2ccc3c(c2)OCO3)cc1` [PAROXETINE HYDROCHLORIDE], affinity in assay [3] was put at a Ki of 59 nM.

Values taken from ChEMBL document CHEMBL1287706 (Bioorg Med Chem, 2010).
